Data from patent publication US6528618B1, “Anti-inflammatory peptides derived from C-reactive protein” (Yeda Research and Development Co. Ltd., priority 1997, dated 2003).
“Also recorded” adds a separate entry of the source. Where a SMILES comes first, the peptide text is derived from it.

Tests used:
[1] = target: T1, human leukocyte cathepsin G (hCG) (Homo sapiens, UniProt P08311); experiment: In vitro inhibition of hCG (cleavage of Suc-AAPF-NA); format: biochemical
T1 construct: Neutrophils (1.4 billion) were isolated from whole blood obtained from a single healthy laboratory donor; from tissue; host or cells: neutrophils from whole blood of a single healthy donor
T1 sequence (P08311 21-243 limits assumed): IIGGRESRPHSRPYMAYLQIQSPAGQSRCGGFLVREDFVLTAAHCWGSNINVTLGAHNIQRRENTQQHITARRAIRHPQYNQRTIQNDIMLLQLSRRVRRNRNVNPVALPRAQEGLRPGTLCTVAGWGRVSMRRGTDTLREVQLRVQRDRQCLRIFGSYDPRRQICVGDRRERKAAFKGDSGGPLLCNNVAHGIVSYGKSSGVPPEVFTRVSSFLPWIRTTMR
Experimental: (§1) The enzymatic activity was assayed with MeOSuc-AAPV-NA for hLE determination and Suc-AAPF-NA for hCG determination (both in 100 mM Hepes buffer, pH 7.4, containing 0.05% of the […] detergent Brij-35). The activities of the individual enzymatic fractions were 100% free from cross-contamination. […] The fractions containing hLE and hCG were dialyzed each against 0.1% pyridinium acetate, pH 5.3, divided into 20 aliquots, lyophilized, and stored at −20 ° C. until use.
vi) Inhibition experiments with hCG: Similar conditions to hLE inhibition experiments were used except the substrate: 80 μL of 1.80 mM Suc-AAPF-NA. The enzyme was dissolved in 800 μL buffer, and the reaction was monitored every 6 min for 1 hour. The final volume was 240 μL containing: 5% DMSO, 1-100 μM peptide, 600 μM substrate, and 1.2 μg enzyme (about 40 picomol).
For hCG, V is determined by fitting a quadratic equation to the total kinetic data (60 min), using the least squares method and calculating V at t=0.
The hCG inhibitory capability of CRP-derived peptides was evaluated by inhibiting the enzymatic cleavage of Suc-AAPF-NA as described in Materials and Methods (section vi).

[2] = target: T2, human leukocyte elastase (hLE) (Homo sapiens, UniProt P08246); experiment: In vitro inhibition of hLE (cleavage of MeOSuc-AAPV-NA); format: biochemical
T2 construct: Neutrophils (1.4 billion) were isolated from whole blood obtained from a single healthy laboratory donor; from tissue; host or cells: neutrophils from whole blood of a single healthy donor
T2 sequence (P08246 30-247 limits assumed): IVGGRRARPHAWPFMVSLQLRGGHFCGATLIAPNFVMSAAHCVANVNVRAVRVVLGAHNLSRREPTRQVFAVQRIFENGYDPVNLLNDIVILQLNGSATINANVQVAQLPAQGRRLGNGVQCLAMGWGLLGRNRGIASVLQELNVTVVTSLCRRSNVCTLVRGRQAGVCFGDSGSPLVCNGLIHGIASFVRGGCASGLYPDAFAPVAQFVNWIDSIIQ
Experimental: as §1
(v) Inhibition experiments with hLE: Peptides were dissolved in 100 mM Hepes buffer pH 7.4 containing 0.1% Brij-35 with 10%. DMSO to yield 300 μM solutions, which were used to make further dilutions with the same buffer, and 80 μL aliquots were added in duplicates to 96-well plates. The substrate, 600 μM MeOSuc-AAPV-NA in the same buffer with 5% DMSO, was added to each well in addition to the blank wells, and the plate was placed in the plate reader equilibrated to 37 C (Dynateck MR-6000). Lyophilized aliquots of hLE were dissolved in 1600 μL of 100 mM Hepes buffer without DMSO, and 80 μL of the enzyme solution was added to the peptides and substrate to initiate the reaction. […] The final volume was 240 μL containing: 5% DMSO, 1-100 μM of peptide, 200 μM substrate, and 0.75 μg (˜25 picomol) enzyme.
(viii) Calculations: For hLE, V is determined by fitting a linear equation to the first 6 time-points (10 min) of the kinetics data using the least squares method. […] Several inhibitor concentration in duplicates and two control wells were used to fit a linear equation to graphs of Vo/Vi−1 vs. [I] for each inhibitor using the least squares method (8 data points for each inhibitor). From calculating the error in the slope of the equation, the relative error for Ki was deduced:
Ki={slope*(1+[S]/Km)}^−1because Ki=[I]*{(1+[S]/Km)*(Vo/Vi−1)}^−1.
The hLE inhibitory capability of CRP-derived peptides was evaluated by inhibiting the enzymatic cleavage of MeOSuc-AAPV-NA as described in Materials and Methods (section v).

[3] = hCG Ki [μM], Table 1, substrate Suc-AAPF-NA 600 μM, pH 7.4
[4] = hLE Ki [μM], Table 1, substrate MeOSuc-AAPV-NA 200 μM, pH 7.4, 37 C
[5] = hCG Ki [μM], Table 2, substrate Suc-AAPF-NA 600 μM, pH 7.4
[6] = hLE Ki [μM], Table 2, substrate MeOSuc-AAPV-NA 200 μM, pH 7.4, 37 C

hCG inhibitory activity (in words) [1] | SMILES | Ki [1, 3] [µM] | Ki [2, 4] [µM] | hLE inhibitory activity (in words) [2] | Ki [1, 5] [µM] | Ki [2, 6] [µM] | other results
 | CC[C@H](C)[C@H](NC(=O)[C@H](CC(=O)O)NC(=O)[C@H](CCCCN)NC(=O)[C@H](CO)NC(=O)[C@@H](N)Cc1c[nH]c2ccccc12)C(=O)NCC(=O)N[C@@H](Cc1ccc(O)cc1)C(=O)N[C@@H](CO)C(=O)N[C@@H](Cc1ccccc1)C(=O)N[C@H](C(=O)N[C@H](C(=O)NCC(=O)NCC(=O)N[C@@H](CO)C(=O)N[C@@H](CCC(=O)O)C(=O)O)C(C)C)[C@@H](C)O [Peptide 7, Trp-Ser-Lys-Asp-Ile-Gly-Tyr-Ser-Phe-Thr-Val-Gly-Gly-Ser-Glu] (H-WSKDIGYSFTVGGSE-OH) | > 200 | > 200 |  |  |  | 
 | CC[C@H](C)[C@H](NC(=O)[C@H](CCC(=O)O)NC(=O)[C@H](CO)NC(=O)CNC(=O)CNC(=O)[C@@H](NC(=O)[C@@H](NC(=O)[C@H](Cc1ccccc1)NC(=O)[C@H](CO)NC(=O)[C@H](Cc1ccc(O)cc1)NC(=O)CN)[C@@H](C)O)C(C)C)C(=O)N[C@@H](CC(C)C)C(=O)N[C@@H](Cc1ccccc1)C(=O)N[C@@H](CCC(=O)O)C(=O)N[C@H](C(=O)O)C(C)C [Peptide 8, Gly-Tyr-Ser-Phe-Thr-Val-Gly-Gly-Ser-Glu-Ile-Leu-Phe-Glu-Val] (H-GYSFTVGGSEILFEV-OH) | > 200 | > 200 |  |  |  | 
 | CC[C@H](C)[C@H](NC(=O)[C@H](CCC(=O)O)NC(=O)[C@H](CO)NC(=O)CNC(=O)CNC(=O)[C@@H](N)C(C)C)C(=O)N[C@@H](CC(C)C)C(=O)N[C@@H](Cc1ccccc1)C(=O)N[C@@H](CCC(=O)O)C(=O)N[C@H](C(=O)N1CCC[C@H]1C(=O)N[C@@H](CCC(=O)O)C(=O)N[C@H](C(=O)N[C@H](C(=O)N[C@H](C(=O)O)C(C)C)[C@@H](C)O)C(C)C)C(C)C [Peptide 9, Val-Gly-Gly-Ser-Glu-Ile-Leu-Phe-Glu-Val-Pro-Glu-Val-Thr-Val] (H-VGGSEILFEVPEVTV-OH) | > 200 | > 200 |  |  |  | 
 | CC[C@H](C)[C@H](N)C(=O)N[C@@H](CC(C)C)C(=O)N[C@@H](Cc1ccccc1)C(=O)N[C@@H](CCC(=O)O)C(=O)N[C@H](C(=O)N1CCC[C@H]1C(=O)N[C@@H](CCC(=O)O)C(=O)N[C@H](C(=O)N[C@H](C(=O)N[C@H](C(=O)N[C@@H](C)C(=O)N1CCC[C@H]1C(=O)N[C@H](C(=O)N[C@@H](Cc1c[nH]cn1)C(=O)N[C@H](C(=O)O)[C@@H](C)CC)C(C)C)C(C)C)[C@@H](C)O)C(C)C)C(C)C [Peptide 10, Ile-Leu-Phe-Glu-Val-Pro-Glu-Val-Thr-Val-Ala-Pro-Val-His-Ile] (H-ILFEVPEVTVAPVHI-OH; N-terminus and C-terminus assumed) |  |  | two orders of magnitude less potent than peptide 6 |  |  | Ki ([1]; hCG inhibitory activity range): 150 to 200 µM; Ki ([2]; hLE inhibitory activity range): 50 to 100 µM
dramatic loss | CC[C@H](C)[C@H](N)C(=O)N[C@@H](CC(C)C)C(=O)N[C@H](C(=O)N[C@@H](Cc1ccccc1)C(=O)N[C@@H](Cc1c[nH]c2ccccc12)C(=O)N[C@@H](CO)C(=O)N[C@@H](CCCCN)C(=O)N[C@@H](CC(=O)O)C(=O)N[C@H](C(=O)NCC(=O)N[C@@H](Cc1ccc(O)cc1)C(=O)N[C@@H](CO)C(=O)N[C@@H](Cc1ccccc1)C(=O)N[C@H](C(=O)O)[C@@H](C)O)[C@@H](C)CC)[C@@H](C)CC [Peptide 11, Ile-Leu-Ile-Phe-Trp-Ser-Lys-Asp-Ile-Gly-Tyr-Ser-Phe-Thr] (H-ILIFWSKDIGYSFT-OH; N-terminus and C-terminus assumed) |  |  | dramatic loss |  |  | fold decrease in hLE inhibitory activity compared to peptide 6 ([2]; relative to peptide 6): around 20 fold
 | CC[C@H](C)[C@H](N)C(=O)N[C@@H](Cc1ccccc1)C(=O)N[C@@H](Cc1c[nH]c2ccccc12)C(=O)N[C@@H](CO)C(=O)N[C@@H](CCCCN)C(=O)N[C@@H](CC(=O)O)C(=O)N[C@H](C(=O)NCC(=O)N[C@@H](Cc1ccc(O)cc1)C(=O)N[C@@H](CO)C(=O)N[C@@H](Cc1ccccc1)C(=O)N[C@H](C(=O)O)[C@@H](C)O)[C@@H](C)CC [Peptide 12, Ile-Phe-Trp-Ser-Lys-Asp-Ile-Gly-Tyr-Ser-Phe-Thr] (H-IFWSKDIGYSFT-OH) |  |  | totally abolished the inhibitory activity | > 200 | > 200 | 
diminished inhibitory activity | CC[C@H](C)[C@H](NC(=O)[C@H](CC(=O)O)NC(=O)[C@H](CCCCN)NC(=O)[C@H](CO)NC(=O)[C@H](Cc1c[nH]c2ccccc12)NC(=O)[C@H](Cc1ccccc1)NC(=O)[C@@H](NC(=O)[C@H](CC(C)C)NC(=O)[C@@H](NC(=O)[C@@H](N)CCC(=O)O)[C@@H](C)CC)[C@@H](C)CC)C(=O)NCC(=O)N[C@@H](Cc1ccc(O)cc1)C(=O)O [Peptide 13, Glu-Ile-Leu-Ile-Phe-Trp-Ser-Lys-Asp-Ile-Gly-Tyr] (H-EILIFWSKDIGY-OH; N-terminus and C-terminus assumed) |  |  | diminished hLE inhibitory activity |  |  | 
retain significant inhibitory activity | CC[C@H](C)[C@H](NC(=O)[C@H](CC(=O)O)NC(=O)[C@H](CCCCN)NC(=O)[C@H](CO)NC(=O)[C@H](Cc1c[nH]c2ccccc12)NC(=O)[C@H](Cc1ccccc1)NC(=O)[C@@H](NC(=O)[C@H](CC(C)C)NC(=O)[C@@H](NC(=O)[C@@H](N)CCC(=O)O)[C@@H](C)CC)[C@@H](C)CC)C(=O)O [Peptide 14, Glu-Ile-Leu-Ile-Phe-Trp-Ser-Lys-Asp-Ile] (H-EILIFWSKDI-OH; N-terminus and C-terminus assumed) |  |  | still retains significant inhibitory activity; also recorded: retain significant inhibitory activity |  |  | 
 | CC[C@H](C)[C@H](NC(=O)[C@H](CC(C)C)NC(=O)[C@@H](NC(=O)[C@@H](N)CCC(=O)O)[C@@H](C)CC)C(=O)N[C@@H](Cc1ccccc1)C(=O)N[C@@H](Cc1c[nH]c2ccccc12)C(=O)N[C@@H](CO)C(=O)N[C@@H](CCCCN)C(=O)O [Peptide 15, Glu-Ile-Leu-Ile-Phe-Trp-Ser-Lys] (H-EILIFWSK-OH) |  |  | total loss of inhibitory activity | > 200 | > 200 | 
 | CC[C@H](C)[C@H](NC(=O)[C@H](CC(=O)O)NC(=O)[C@H](CCCCN)NC(=O)[C@@H](N)CO)C(=O)NCC(=O)N[C@@H](Cc1ccc(O)cc1)C(=O)N[C@@H](CO)C(=O)O [Peptide 16, Ser-Lys-Asp-Ile-Gly-Tyr-Ser] (H-SKDIGYS-OH) |  |  | totally inactive | > 200 | > 200 | 
